Test results as given in patent publication US20130310256A1, “HERBICIDAL COMPOSITIONS COMPRISING 4-AMINO-3-CHLORO-5-FLUORO-6-(4-CHLORO-2-FLUORO-3-METHOXYPHENYL) PYRIDINE-2-CARBOXYLIC ACID OR A DERIVATIVE THEREOF AND VLCFA AND LIPID SYNTHESIS INHIBITING HERBICIDES” (DOW AGROSCIENCES LLC, priority 2008, published 2013).
“And” between values parts separate entries of the source, which are not always exact repeats. Equal entries are not always repeated.

How the values were obtained:
ECHCG = assay: Example I: postemergence foliar-applied weed control, greenhouse; assay type: in vivo, Echinochloa crus-galli (L.) Beauv. (barnyardgrass); conditions: for Visual Weed Control (%) - 22 DAA ECHCG Obs / Visual Weed Control (%) - 20 DAA ECHCG Obs: foliar
Outline: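 Plants grown in loam/sandy loam–calcareous grit soil (80:20) in greenhouse, 14 hr photoperiod, about 29° C. day/26° C. night, treated postemergence at first to fourth true leaf stage. Foliar spray at 187 L/ha with 1.25% (v/v) crop oil concentrate; Compound A dosed on acid equivalent basis, partners on active ingredient basis.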

POLHP = assay: Example V: field trial, in-water application to transplanted rice, Niigata, Japan; assay type: in vivo, Polygonum hydropiperoides; conditions: 31 DAA, submerged weeds
Protocol: Post and pre-emergence field trials were conducted in Niigata, Japan. Trial sites were located in commercially grown fields of transplanted rice (Oryza sativa, variety: Koshihikari) using standard herbicide small plot research methodology. The trial plot size was 2 meters (m)×2 m with 3 replications. The nursery plants were grown in the greenhouse using practical methods and transplanted into the field at the 2.5-leaf stage on May 7, 2012. The row and in-row spaces were 30 cm and 17 cm, respectively. The crop was grown using normal cultural practices for fertilization, water management and maintenance to ensure good growth of the crop and the weeds.
Treatments consisted of the benzyl ester of 4-amino-3-chloro-5-fluoro-6-(4-chloro-2-fluoro-3-methoxyphenyl)pyridine-2-carboxylic acid (Compound A) formulated as an SC (suspension concentrate) and various herbicidal components alone and in combination. Compound A benzyl ester was applied on an active ingredient basis. […]
Compound A benzyl ester SC was once diluted in 100 mL water in the 200 mL bottle/plot to achieve the desired rates and applied by water injection. […] Visual weed control was scored on a scale of 0 to 100 percent where 0 corresponds to no injury and 100 corresponds to complete kill. […]

IPOHE = assay: Example I: postemergence foliar-applied weed control, greenhouse; assay type: in vivo, Ipomoea hederacea Jacq. (ivyleaf morningglory); conditions: for Visual Weed Control Obs: 20 DAA; for Visual Weed Control (%) - 21 DAA IPOHE Obs: foliar
Excerpt: Seeds or nutlets of the desired test plant species were planted in a soil matrix prepared by mixing a loam or sandy loam soil (e.g., 28.6 percent silt, 18.8 percent clay, and 52.6 percent sand, with a pH of about 5.8 and an organic matter content of about 1.8 percent) and calcareous grit in an 80 to 20 ratio. The soil matrix was contained in plastic pots with a volume of 1 quart and a surface area of 83.6 square centimeters (cm^2). When required to ensure good germination and healthy plants, a fungicide treatment and/or other chemical or physical treatment was applied. The plants were grown for 8-22 days in a greenhouse with an approximate 14 hr photoperiod which was maintained at about 29° C. during the day and 26° C. during the night. Nutrients (Peters Excel® 15-5-15 5-Ca 2-Mg and iron chelate) were applied in the irrigation solution as needed and water was added on a regular basis. Supplemental lighting was provided with overhead metal halide 1000-Watt lamps as necessary. The plants were employed for testing when they reached the first through fourth true leaf stage.
Treatments consisted of the acid or esters of 4-amino-3-chloro-5-fluoro-6-(4-chloro-2-fluoro-3-methoxy-phenyl)pyridine-2-carboxylic acid (Compound A), each formulated as an SC (suspension concentrate), and various herbicidal components alone and in combination. Forms of compound A were applied on an acid equivalent basis.
Other herbicidal components were applied on an active ingredient basis and included very long chain fatty acid (VLCFA) synthesis-inhibiting and fatty acid/lipid synthesis-inhibiting herbicides acetochlor (technical grade material), acetochlor+dichlormid formulated as Topnotch®, pretilachlor (technical grade material), butachlor formulated as Butachlor EC, fentrazamide formulated as Fentrazamide EC, thiobencarb formulated as Bolero® 8EC, cafenstrole formulated as Himeadow® WP or Lapost® Flowable, benfuresate formulated as Full Shot®, dimethenamid-P formulated as Outlook®, indanofan (technical grade material), flufenacet formulated as Define® DF, mefenacet (technical grade material), S-metolachlor formulated as Dual® II Magnum, pethoxamid formulated as Successor® 600, and pyroxasulfone (technical grade material).
Treatment requirements were calculated based upon the rates being tested, the concentration of active ingredient or acid equivalent in the formulation, and a 12 mL application volume at a rate of 187 L/ha.
For treatments comprised of formulated compounds, measured amounts of compounds were placed individually in 25 mL glass vials and diluted in a volume of 1.25% (v/v) Agri-Dex® crop oil concentrated to obtain 12× stock solutions. […] Application solutions were prepared by adding an appropriate amount of each stock solution (e.g., 1 mL) and diluted to the appropriate final concentrations with the addition of 10 mL of an aqueous mixture of 1.25% (v/v) crop oil concentrate so that the final spray solutions contained 1.25+/−0.05% (v/v) crop oil concentrate.
For treatments comprised of technical compounds, weighed amounts can be placed individually in 25 mL glass vials and dissolved in a volume of 97:3 v/v acetone/DMSO to obtain 12× stock solutions. […] Application solutions can be prepared by adding an appropriate amount of each stock solution (e.g., 1 mL) and diluted to the appropriate final concentrations with the addition of 10 mL of an aqueous mixture of 1.5% (v/v) crop oil concentrate so that the final spray solutions contain 1.25% (v/v) crop oil concentrate. When technical materials are used, the concentrated stock solutions can be added to the spray solutions so that the final acetone and DMSO concentrations of the application solutions are […], respectively. […]

CCS(=O)(=O)Oc1ccc2c(c1)C(C)(C)CO2 [Benfuresate, 2,3-dihydro-3,3-dimethyl-5-benzofuranyl ethanesulfonate]
Visual Weed Control (%) - 22 DAA ECHCG Obs (ECHCG; 75 gai/ha): 0% | Visual Weed Control (%) - 22 DAA ECHCG Obs (ECHCG; 150 gai/ha): 0% | Visual Weed Control (%) - 22 DAA ECHCG Obs (ECHCG; 300 gai/ha): 0% | Visual Weed Control POLHP Obs (POLHP; 600 gai/ha): 94.3%

CCN(CC)C(=O)n1cnc(S(=O)(=O)c2c(C)cc(C)cc2C)n1 [Cafenstrole, N,N-diethyl-3-[(2,4,6-trimethylphenyl)sulfonyl]-1H-1,2,4-triazole-1-carboxamide]
Visual Weed Control Obs (ECHCG; 20 DAA, 26.25 gai/ha Himeadow WP): 10% | Visual Weed Control Obs (ECHCG; 20 DAA, 52.5 gai/ha Himeadow WP): 15% | Visual Weed Control Obs (ECHCG; 20 DAA, 105 gai/ha Himeadow WP): 15% | Visual Weed Control Obs (ECHCG; 21 DAA, 210 gai/ha Lapost Flowable): 0% | Visual Weed Control Obs (IPOHE; 26.25 gai/ha Himeadow WP): 0% | Visual Weed Control Obs (IPOHE; 105 gai/ha Himeadow WP): 30% | Visual Weed Control (%) - 21 DAA IPOHE Obs (IPOHE; 26.25 gai/ha): 0% | Visual Weed Control (%) - 21 DAA IPOHE Obs (IPOHE; 210 gai/ha, 2nd IPOHE sub-table): 10%

COc1c(Cl)ccc(-c2nc(C(=O)O)c(Cl)c(N)c2F)c1F [Compound A Acid, 4-amino-3-chloro-6-(4-chloro-2-fluoro-3-methoxyphenyl)-5-fluoropyridine-2-carboxylic acid]
Visual Weed Control (%) - 22 DAA ECHCG Obs (ECHCG; 5.3 gae/ha): 65% | Visual Weed Control (%) - 22 DAA ECHCG Obs (ECHCG; 10.6 gae/ha): 55% | Visual Weed Control Obs (ECHCG; 20 DAA, 4.38 gae/ha): 60% and 50% | Visual Weed Control Obs (ECHCG; 21 DAA, 17.5 gae/ha): 88% | Visual Weed Control Obs (ECHCG; 21 DAA, 35 gae/ha): 85% | Visual Weed Control Obs (IPOHE; 4.38 gae/ha): 0% | Visual Weed Control Obs (IPOHE; 8.75 gae/ha): 20% | Visual Weed Control Obs (IPOHE; 17.5 gae/ha): 40%

COc1c(Cl)ccc(-c2nc(C(=O)OCc3ccccc3)c(Cl)c(N)c2F)c1F [Compound A Benzyl Ester, benzyl ester of 4-amino-3-chloro-5-fluoro-6-(4-chloro-2-fluoro-3-methoxy-phenyl)pyridine-2-carboxylic acid]
Visual Weed Control (%) - 22 DAA ECHCG Obs (ECHCG; 5.3 gae/ha): 40% | Visual Weed Control (%) - 20 DAA ECHCG Obs (ECHCG; 8 gae/ha): 63% | Visual Weed Control (%) - 22 DAA ECHCG Obs (ECHCG; 8 gae/ha): 25% | Visual Weed Control (%) - 22 DAA ECHCG Obs (ECHCG; 10.6 gae/ha): 60% | Visual Weed Control (%) - 20 DAA ECHCG Obs (ECHCG; 16 gae/ha): 78% | Visual Weed Control (%) - 22 DAA ECHCG Obs (ECHCG; 16 gae/ha): 50% | Visual Weed Control Obs (ECHCG; 20 DAA, 4.38 gae/ha): 70% | Visual Weed Control Obs (ECHCG; 20 DAA, 8.75 gae/ha): 70% | Visual Weed Control Obs (ECHCG; 20 DAA, 16 gae/ha): 78% | Visual Weed Control Obs (ECHCG; 20 DAA, 32 gae/ha): 83% | Visual Weed Control (%) - 20 DAA ECHCG Obs (ECHCG; 32 gae/ha): 83% | Visual Weed Control (%) - 22 DAA ECHCG Obs (ECHCG; 32 gae/ha): 85% | Visual Weed Control (%) - 21 DAA IPOHE Obs (IPOHE; 4.38 gae/ha): 0% | Visual Weed Control (%) - 21 DAA IPOHE Obs (IPOHE; 8.75 gae/ha): 10% | Visual Weed Control (%) - 21 DAA IPOHE Obs (IPOHE; 17.5 gae/ha): 30% | Visual Weed Control (%) - 21 DAA IPOHE Obs (IPOHE; 17.5 gae/ha, 2nd IPOHE sub-table): 10% | Visual Weed Control Obs (IPOHE; 4.38 gae/ha): 10% | Visual Weed Control Obs (IPOHE; 8.75 gae/ha): 15% | Visual Weed Control Obs (IPOHE; 17.5 gae/ha): 25% | Visual Weed Control POLHP Obs (POLHP; 100 gai/ha): 68.3%

CCCOCCN(C(=O)CCl)c1c(CC)cccc1CC [Pretilachlor, 2-chloro-N-(2,6-diethylphenyl)-N-(2-propoxyethyl)acetamide]
Visual Weed Control Obs (ECHCG; 20 DAA, 37.5 gai/ha): 10% | Visual Weed Control Obs (ECHCG; 20 DAA, 75 gai/ha): 10% | Visual Weed Control Obs (ECHCG; 20 DAA, 150 gai/ha): 0%
